The test system of experiment [1] is mouse transplanted tumor S180. As to the kind of experiment: subcutaneous inhibition of mouse transplanted tumor S180. The experiment is classed as in vivo. Conditions: positive control 20 mg·kg^−1, abdominally injected. How it is done:
In vivo experiment: experimental material: mice weighing 18-22 g from Laboratory Animal Center of Jilin University; Ehrlich ascites tumor cell strains are provided by a lab of the inventor; cytoxan (CTX) is from Jiangsu Hengrui Medicine Co., Ltd, whose batch number is 06101921; 5180 ascites tumor and soild tumor experimental groups respectively comprises a normal control group, a negative control group, a positive control group, an rLZ-8 low-dosage group (0.25 mg·kg^−1), an rLZ-8 middle-dosage group (0.5 mg·kg^−1), an rLZ-8 high-dosage group (1 mg·kg^−1), an rLZ-8-HSA low-dosage group (0.25 mg·kg^−1), an rLZ-8-HSA middle-dosage group (0.5 mg·kg^−1), and an rLZ-8-HSA high-dosage group (1 mg·kg^−1), wherein dosages of the rLZ-8-HSA groups are judged from LZ-8 dosage, wherein each group comprises 10 mice.
tumor inhibition rate (%)=(average tumor weight of control groups−average tumor weight of experimental groups)/average tumor weight of control groups×100%.

The test system of experiment [2] is mouse melanoma cells B16-F10. Kind of experiment: mouse B16-F10 transplanted tumor model, in situ tumor weight. Conditions: 2.5 mg/kg, 5 days, again after 3 weeks, 28 day cycle. The experiment is classed as in vivo. How it is done: In vivo experiment: firstly, establishing a mouse tumor mould, wherein mouse melanoma cells B16-F10 is cultured with the DMEM comprising 10% fetal calf serum at 37° C. in a CO2 incubation device; slowly subcutaneously injecting 200 μl B16-F10 cell suspension (comprising 1×10^7 cells) with a 1 ml injector at mouse dorsal-ventral skin, so as to establish a mouse transplanted tumor mould.

The next experiment has as its system platelets. As to the kind of experiment: treatment of mouse thrombocytopenia caused by cyclophosphamide, platelet count. The format is in vivo. How it is done:
Experimental medicine: preparing a 19.25 μg·kg^−1 and a 9.625 μg·kg^−1 dosage groups of the recombinant ganoderma immunoregulatory protein (rLZ-8) with sterile injection water, and 0.2 ml per mouse; and preparing a 19.25 μg·kg^−1 and a 9.625 μg·kg^−1 dosage groups (judging from the LZ-8) of the fusion protein rLZ-8-HSA of the recombinant ganoderma immunoregulatory protein.
Positive control medicine: thrombopoietin (THPO) from Shenyang 3SBio Inc., with a dosage of 770 μg·kg^−1/d and 0.2 ml per mouse.
Chemotherapy medicine: cyclophosphamide (Cy) from Jiangsu Hengrui Medicine Co., Ltd, whose batch number is 12112121, 200 mg/bottle; preparing into 100 mg·kg^−1, 0.2 ml per mouse with sterile injection water.
Platelet dilution: urea: 1.3 g; sodium citrate: 0.5 g; formaldehyde: 0.1 ml; adding distilled water to 100 ml for mixing, then filtering for further utilization.
Experimental method: dividing experimental animals into 5 groups, wherein each group comprises 10 mice with 5 males and 5 females; except for a normal control group (injected with normal saline having an equal volume), abdominally injecting the cyclophosphamide to the mice with a dosage of 100 mg·kg^−1, 0.2 ml per mouse per day, and lasting for three days; when a platelet quantity decreased to below 300×10^9/L, subcutaneously injecting the rLZ-8, the fusion protein rLZ-8-HAS (19.25 μg·kg^−1, 9.625 μg·kg^−1, 0.2 ml·per mouse per day) and the positive medicine (THPO 770 μg·kg^−1, 0.2 ml·per mouse per day) according to the above groups with corresponding dosages, and injecting the normal saline having the equal volume to the normal control group and a CP group; respectively sampling mouse tail vein blood 3 d, 7 d and 14 d after treatment, counting platelets with high power lens, wherein results thereof are listed in table 7.

A further experiment deals with mouse spleen cells. Kind of experiment: promotion of mouse spleen cell proliferation, WST-1 method. The experiment is classed as cell-based. To be noted: for OD450, promotion of cell proliferation: 24 h, x ± s, n = 9; for promotion of spleen cell proliferation compared with rLZ-8: same protein concentration. How it is done: Testing effects of the fusion proteins on mouse spleen cell proliferation by a WST-1 method, which illustrates strength of biological activity, wherein according to the present invention, BALB/c female mice are used, whose weight is controlled at 20-22 g; executing the mice by stretching necks thereof, taking out spleens under a sterile condition, and putting into a plate with 5 ml DMEM comprising 10% calf serum; cracking the spleens with tweezers, filtering tissue suspension with gauze for removing tissue blocks, and preparing cell suspension of spleen cells; adding 100 μl the tissue suspension into 900 μl 2% glacial acetic acid for counting with a microscope; adjusting a cell concentration to 5×10^6/ml with DMEM comprising 2% calf serum; respectively preparing the fusion proteins and the rLZ-8 with same molar concentration gradient, wherein there are 3 gradient concentrations, each concentration occupies 9 wells with 100 μl per well; adding tissue suspension with a concentration of 5×10^6/ml with 100 μl per well; shaking for evenly mixing, and then putting into a 37° C., 5% CO2 incubation device to incubate for 24 h; after incubation, adding WST-1 with 20 μl per well; putting into the 37° C., 5% CO2 incubation device to incubate for 3 h, then testing OD450 (with a BIO-RAD); wherein results are listed in table 1.

For a further experiment, the system named is leukocytes. As to the kind of experiment: treatment of rat models with leucopenia caused by cyclophosphamide, leukocyte count. The format is in vivo. To be noted: positive medicine 13.5 μg/ml, 0.1 ml per rat. The source says:
Utilizing Wistar rats in the experiments, wherein 18 rats weighing about 100 g are utilized. […] The experiment has an rLZ-8 low-dosage group, an rLZ-8 middle-dosage group, an rLZ-8 high-dosage group, an rLZ-8-HSA low-dosage group, an rLZ-8-HSA middle-dosage group, an rLZ-8-HSA high-dosage group, and a positive medicine control group (utilizing the […]®). […] On the third day, the blood is sampled from the tail vein, and the leukocytes are counted by a cytoanalyzer. After successful modeling, the rats of each the group are respectively treated with the rLZ-8, the three kinds of the fusion proteins, or the positive medicine (the […]®) with the corresponding dosage, and the equal sterile saline is given to the rats of the normal control and a CP group. The blood is sampled from the tail vein on the first, third and seventh treatment days, and the leukocytes are counted by the cytoanalyzer. Medicine efficacy is analyzed according to a number difference of the leukocyte between before and after the treatment.

[3] abbreviates: 770 μg·kg^−1 subcutaneously per day.

Marks after values point to notes of the source that are not given here.

In experiment [1], `O=P1(N(CCCl)CCCl)NCCCO1` (stereo not drawn) [CTX, cyclophosphamide, reference compound] had an Inhibition rate of 64.3% and a tumor weight of 0.36 ± 0.02 g.

In experiment [2], `CN(C)/N=N/c1[nH]cnc1C(N)=O` [dacarbazine, reference compound] came in with a tumor inhibition rate of 62.57 ± 0.27% and a tumor weight of 0.52 ± 0.12 g.

With “THPO: thrombopoietin (THPO) from Shenyang 3SBio Inc., positive control medicine [reference compound]”, the platelets after with platelets (770 μg·kg^−1 group, after cyclophosphamide, before treatment) is on record as 284 ± 0.19 *10^9/L. Further, the platelets before with platelets (770 μg·kg^−1 group, baseline before cyclophosphamide) is on record as 851 ± 0.34 *10^9/L. In the experiment with platelets (setting [3]), the “platelets 3rd day” value is 390 ± 0.38 *10^9/L, the “platelets 7th day” value is given as 420 ± 0.32 *10^9/L and the “platelets 14th day” value is 689 ± 0.65 *10^9/L.

As for “rLZ-8-Fc4: fusion protein of ganoderma immunoregulatory protein (LZ-8) and human IgG4Fc fragment, SEQ ID NO. 3”, the “OD450, promotion of cell proliferation” value is on record as 0.452 ± 0.43 with mouse spleen cells (protein 5.0 × 10^−9 mol/L), 0.840 ± 0.27 in the experiment on mouse spleen cells (protein 10.0 × 10^−9 mol/L) and 0.929 ± 0.21 with mouse spleen cells (protein 15.0 × 10^−9 mol/L). Further, in the experiment with mouse spleen cells, the “promotion of spleen cell proliferation compared with rLZ-8” value was “significantly decreased”.

B1: GenLei ® Scimax ®: recombinant human granulocyte colony-stimulating factor injection (rhG-CSF), positive medicine (protein, UniProt P09919 31-207, looked up)
Granulocyte …: TPLGPASSLPQSFLLKCLEQVRKIQGDGAALQEKLVSECATYKLCHPEELVLLGHSLGIPWAPLSSCPSQALQLAGCLSQLHSGLFLYQGLLQALEGISPELGPTLDTLQLDVADFATTIWQQMEELGMAPALQPTQGAMPAFASAFQRRAGGVLVASHLQSFLEVSYRVLRHLAQP
In the case of B1, in the experiment on leukocytes, the “leukocyte number on the first treatment day” value was 6.4e+09 L⁻¹, the “leukocyte number on the seventh treatment day” value worked out at 1.117e+10 L⁻¹ and the “leukocyte number on the third treatment day” value was found to be 1.183e+10 L⁻¹. Moreover, the leukocyte number before in the experiment on leukocytes (baseline after CP modeling, before treatment) turned out to be 4.55e+09 L⁻¹.

B2: rLZ-8-Fc1: fusion protein of ganoderma immunoregulatory protein (LZ-8) and human IgG1Fc fragment, SEQ ID NO. 2 (protein)
chain: RPSDTALIFRLAWDVKKLSFDYTPNWGRGNPNNFIDTVTFPKVLTDKAYTYRVAVSGRNLGVKPSYAVESDGSGKVNFLEYNSGYGIADTNTIGVFVVDPDTNNDFIIAGWNGGGGSSEPKSCDKTHTCPPCPAPELLGGPSVFLFPPKPKDTLMISRTPEVTCVVVDVSHEDPEVKFNWYVDGVEVHNAKTKPREEGYNSTYRVVSVLTVLHGDWLNGKEYKCKVSNKALPAPIEKTISKAKGGPREPGVYTLPPSREEMTKNGVSLTCLVKGFYPSDIAVEWESNGGPENNYKTTPPVLDSDGSFFLYSKLTVDKSRWGGGNVFSCSVMHEALHNHYTGKSLSLSPGK
modifications: rLZ-8-Fc1 sequence
For the molecule B2, the “OD450, promotion of cell proliferation” value in the experiment with mouse spleen cells (protein 5.0 × 10^−9 mol/L) is recorded as 0.543 ± 0.26; in the experiment with mouse spleen cells (protein 10.0 × 10^−9 mol/L), 0.937 ± 0.29; with mouse spleen cells (protein 15.0 × 10^−9 mol/L), 1.114 ± 0.31. In addition, in the experiment on mouse spleen cells, the “promotion of spleen cell proliferation compared with rLZ-8” value is “significantly decreased”.

The values are drawn from US20160289280A1, “Fusion protein of recombinant ganoderma immunoregulatory protein and human serum albumin, preparation method thereof, and application thereof” (priority 2013, published 2016).
